Reference: patent publication US11033604B2, “Reagents and methods for treating bacterial infection” (priority 2018, dated 2021)
Non-standard residues stand in square brackets, D forms with d. No end group written: not given here.

How the values were obtained:
synthetic PSMα1 = test: PSMα1 fibrillization assay with added inhibitors (ThT); type: biochemical, Staphylococcus aureus
Description: FIG. 5. Aggregation of synthetic PSMα1 is inhibited by designed α-sheet peptides. (A) Synthetic PSMα1 peptide (30 μM, <1% DMSO, pH 5.5) was allowed to aggregate alone and in the presence of AP90 (1:4 molar ratio), RC (1:4 molar ratio), or AP407 (1:3 molar ratio). Two different solvent conditions were used (water+<1% DMSO; LB medium+<1% DMSO) and aggregation was monitored by ThT fluorescence. Inhibition values for each peptide are reported as a percentage of the peptide-free control samples (0% inhibition). (B) ThT fluorescence curves monitored the aggregation kinetics of PSMα1 under two different solvent conditions (water+<1% DMSO, black circles; LB medium+<1% DMSO, white circles). Fluorescence values in (B) are averages of 3-6 samples, with error bars to represent the standard deviation of the mean.
Designed α-sheet peptides inhibit amyloid formation through selective binding After establishing the structural transitions required to form amyloid in PSMα1, we examined the effect of the designed α-sheet peptides on the aggregation of PSMα1 in vitro. The designed peptide inhibitors were co-incubated with freshly prepared samples of synthetic PSMα1 (30 μM) and aggregation was monitored by ThT, as described above. To ensure sample homogeneity and removal of any amyloid “seeds” prior to aggregation, the synthetic PSMα1 peptide was treated with DMSO and then diluted into filtered water. […]

S. aureus MN8 biofilms = test: ThT fluorescence assay of amyloid formation in S. aureus MN8 biofilm cultures; type: cell-based, Staphylococcus aureus; conditions: MN8 and SH1000 WT strains, particularly MN8; 24 h, 37° C.
Description: We developed a novel protocol to identify amyloid fibril formation during biofilm development in two S. aureus strains—SH1000 WT, a rsbU^+ laboratory strain^27, and MN8, a clinical strain isolated from the human urogenital tract (Table 1). After 24 hours of batch growth in microtiter plates, biofilms were washed and incubated with Thioflavin T (ThT), and the resulting fluorescence signals served as a proxy for the extent of PSM fibril formation in the EM (FIG. 1A). Next, we utilized this assay to test α-sheet amyloid inhibitor designs and control peptides (sequences provided in Table 2) in batch biofilm cultures. The first inhibitor used is AP90 (Alternating Peptide #90, referred to as α1 previously^25,26). […] The AP401 and AP407 designs display similar spectral features by CD, except that AP401 has a positive signal in the random coil region (FIG. 7). AP401 has the same sequence as AP90 but with reversed chirality in the strands and turn, thus the D-amino acids give rise to an approximate mirror image CD spectrum relative to AP90. AP407 is a variant of AP90 with a disulfide bond. An unstructured random coil peptide (RC) and a β-hairpin (β) are used as structural controls.
Designed and control peptides were added to the growth medium prior to inoculation, and biofilms were allowed to grow for 24 hours at 37° C. Planktonic cells were removed and the remaining biofilms were assayed for amyloid content using ThT. […] The disulfide-linked peptide design, AP407, reduced the amyloid fibril formation by 46% and 56% in the MN8 and SH1000 WT strains, respectively. In contrast, the random coil and β-sheet control peptides were ineffective.
Overnight cultures of S. aureus (see Table 1 for a list of strains used in this study) were spun down and re-suspended in fresh Luria-Bertani (LB) media to an optical density of 0.1 (600 nm). These cultures were then mixed with reconstituted peptide (or water, in the case of controls) and aliquoted in quadruplicate into wells of a clear 48-well plate (Corning, TC-treated polystyrene). The final concentration of peptide in each well was 80 μM, unless otherwise noted. Plates were covered and biofilms were grown at 37° C. for 24 hours with gentle rocking. At this time, medium and planktonic cells were removed from wells using a vacuum and the remaining adherent biofilms were rinsed once with PBS (BupH™, Thermo Scientific). Thioflavin T (ThT), an established fluorescent label for amyloid fibrils^40, was then added to each well at a concentration of 22 μM and biofilms were incubated statically for 4 hours at room temperature. The solution was then removed from the wells and PBS was added with vigorous pipetting to detach biofilms from the plate surface. Plates were shaken at high speed for 1 minute on a plate shaker to detach any remaining biofilm material and homogenize the samples. The detached biofilm suspensions were transferred to a 96-well black-walled plate (Corning, TC-treated polystyrene) and ThT fluorescence was read at 438/495 nm on a Perkin-Elmer Enspire™ plate reader. Fluorescence measurements were corrected by subtracting the background intensity of identical samples without ThT. For calculation of live:dead cell ratios, biofilm suspensions were prepared as described above and cells were stained with a 1:1 mixture of Syto9 and propidium iodide (LIVE/DEAD BacLight™ Bacterial Viability Kit, Thermo Scientific). After 15 minutes of incubation at room temperature, fluorescence ratios of the two dyes were determined using a Perkin-Elmer Enspire™ plate reader.

SA = test: Crystal violet biofilm assay; type: cell-based, Staphylococcus aureus
From the text: (§1) Furthermore, these same inhibitors are active against EC, SE, and SM.

[1] = system: P. aeruginosa PAO1 pFap biofilms; test: In situ ThT assay of Fap amyloid in P. aeruginosa biofilms; type: cell-based; conditions: LB medium, 37° C., 48 h
From the text: FIG. 15. Action of synthetic α-sheet peptides in the P. aeruginosa system. […] Error bars indicate standard deviation of the mean of at least three replicates. Significance values are p<0.05: *, p<0.01: **, p<0.001: ***.
The strain used in these experiments is a fap-overexpressing mutant of P. aeruginosa PAO1 WT called PAO1 pFap. The overexpression is generated by cloning the entire fap operon into a host expression vector, which is then transformed into PAO1 WT. […] For in situ assays, overnight cultures from a single colony of freshly transformed PAO1 pFap were used to inoculate 96 well plates in the presence of synthetic α-sheet peptides in LB medium. As a control, biofilms of the deletion strain PAO1 Δfap were grown under the same conditions. Plates were covered and incubated at 37° C. for 48 h. After incubation, planktonic cells and media were gently removed from the biofilms by pipetting. The biofilms were rinsed once with PBS prior to staining with 20 μM ThT. Stained biofilms were resuspended by pipetting and sonication, and the fluorescence of ThT was measured at 448/485 nm in a plate reader.

Escherichia coli (EC) = test: Crystal violet biofilm assay; type: cell-based
From the text: as §1

[2] = system: Pseudomonas aeruginosa (PA); test: Crystal violet biofilm assay; type: cell-based
From the text: as §1

[3] = system: Staphylococcus epidermidis (SE); test: Crystal violet biofilm assay; type: cell-based
From the text: as §1

[4] = system: Streptococcus mutans (SM); test: Crystal violet biofilm assay; type: cell-based
From the text: as §1

KLKpLLTSENTL (KLK[dP]LLTSENTL) [RC, unstructured random coil peptide used as structural control]
Inhibition of PSMα1 fibril formation (synthetic PSMα1; 30 μM PSMα1, LB medium + <1% DMSO, 1:4 molar ratio): did not significantly influence amyloid formation
Inhibition of PSMα1 amyloid formation (synthetic PSMα1; 30 μM PSMα1, water + <1% DMSO, 1:4 molar ratio (excess peptide)): little effect
Effect on amyloid fibril formation in S. aureus biofilms (ThT fluorescence, FIG. 1B) (S. aureus MN8 biofilms): ineffective

RGNwNeSkMNEYSGWmLmLtMGR (RGN[dW]N[dE]S[dK]MNEYSGW[dM]L[dM]L[dT]MGR) [AP5]
Biofilm inhibition (crystal violet, FIG. 10) (SA): inhibition
Amyloid formation in biofilms (ThT) [1]: significantly inhibit amyloid formation
Activity against biofilm-forming bacteria (crystal violet) (Escherichia coli (EC)): active
Biofilm inhibition (crystal violet, FIG. 10) [2]: inhibition
Activity against biofilm-forming bacteria (crystal violet) [3]: active
Activity against biofilm-forming bacteria (crystal violet) [4]: active

SWTWEpNKWTWK (H-SWTWE[dP]NKWTWK-NH2; SMILES C[C@@H](O)[C@H](NC(=O)[C@H](Cc1c[nH]c2ccccc12)NC(=O)[C@H](CCCCN)NC(=O)[C@H](CC(N)=O)NC(=O)[C@H]1CCCN1C(=O)[C@H](CCC(=O)O)NC(=O)[C@H](Cc1c[nH]c2ccccc12)NC(=O)[C@@H](NC(=O)[C@H](Cc1c[nH]c2ccccc12)NC(=O)[C@@H](N)CO)[C@@H](C)O)C(=O)N[C@@H](Cc1c[nH]c2ccccc12)C(=O)N[C@@H](CCCCN)C(N)=O) [β, β-hairpin structural control peptide, reference compound]
Effect on amyloid fibril formation in S. aureus biofilms (ThT fluorescence, FIG. 1B) (S. aureus MN8 biofilms): ineffective

rGeMnLsWmneysGwTmNlKmGr (Ac-[dR]G[dE]M[dN]L[dS]W[dM][dN][dE][dY][dS]G[dW]T[dM]N[dL]K[dM]G[dR]-NH2; SMILES CSCC[C@H](NC(=O)[C@@H](CCC(=O)O)NC(=O)CNC(=O)[C@@H](CCCNC(=N)N)NC(C)=O)C(=O)N[C@H](CC(N)=O)C(=O)N[C@@H](CC(C)C)C(=O)N[C@H](CO)C(=O)N[C@@H](Cc1c[nH]c2ccccc12)C(=O)N[C@H](CCSC)C(=O)N[C@H](CC(N)=O)C(=O)N[C@H](CCC(=O)O)C(=O)N[C@H](Cc1ccc(O)cc1)C(=O)N[C@H](CO)C(=O)NCC(=O)N[C@H](Cc1c[nH]c2ccccc12)C(=O)N[C@H](C(=O)N[C@H](CCSC)C(=O)N[C@@H](CC(N)=O)C(=O)N[C@H](CC(C)C)C(=O)N[C@@H](CCCCN)C(=O)N[C@H](CCSC)C(=O)NCC(=O)N[C@H](CCCNC(=N)N)C(N)=O)[C@@H](C)O) [AP401]
Effect on amyloid fibril formation in S. aureus biofilms (ThT fluorescence, FIG. 1B) (S. aureus MN8 biofilms): significant reduction in amyloid fibril formation
